# Data published in US20250213603A1, “PHARMACEUTICAL COMPOSITION FOR TREATING CANCER” (SAGA UNIVERSITY, priority 2021, published 2025).
# Entries after “also recorded” stand apart in the source; their conditions may differ.
# What was measured:
# [1] = test system: BV173 cells (leukemia cells); assay: Ventricular invasion mouse model (leukemic invasion of the central nervous system); type: in vivo, BRJ mice
# Description: Here, the effect of HP-β-CyD and FA-HP-β-CyD on leukemic central nervous system invasion was test by constructing a mouse model.
# BRJ mice (female) were anesthetized (intraperitoneal administration (IP) of 100 μL of a triple anesthetic of medetomidine hydrochloride (0.75 mg/kg), mitazolam (4 mg/kg), and butorphanol tartrate (5 mg/kg)), and intrathecal transplantation was carried out, through the right coronal suture at a point 1 mm to the right of the center line defined by the sagittal suture, with a polyethylene stop tube-equipped microsyringe designed to inject BV173 cells (leukemia cells) precisely to a depth of 3 mm using a Hamilton syringe LT type needle tip style pst-3 and 25 gauge.
# (§1) The FA-HP-β-CyD synthesized in Example 1 was used in this example.
# The doses were set at 30 mg/kg for HP-β-CyD and 3 mg/kg for FA-HP-β-CyD by referring to the dose of HP-β-CyD for a mouse model of the hereditary lipid storage disease Niemann-Pick disease type C (NPC) (Int. J. Mol. Sci. 2021, 22, 452. https://doi.org/10.3390/ijms22010452).
# (§2) Significant difference was determined as follows. That is, the data were analyzed using a two-sided Student's t-test without a comparison table. A value of P<0.05 was considered to indicate a significant difference.
# [2] = test system: A549; assay: Proliferation inhibitory action on low folate receptor-expressing cells (MTT assay); type: cell-based, human; settings: A549, 2.5-10 mM, 72 hours (FIG. 3)
# Description: The proliferation inhibitory action on A549, a low folate receptor-expressing cell, was evaluated as follows.
# A human non-small cell lung cancer cell line (A549) was used in this example. The FA-HP-β-CyD synthesized in Example 1 was used.
# For cell proliferation, 2×10^4 cells of the […] were seeded with 100 μL DMEM medium (Sigma-Aldrich, USA) per well to a flatbottom 96-well plate (Greiner Labortechnik, Hamburg, Germany), and incubation for 72 hours was carried out with exposure to HP-β-CyD and FA-HP-β-CyD at different concentrations (0 mM (control: CT), 2.5 mM, 5 mM, 7.5 mM, and 10 mM). Evaluation was then carried out using a dimethyl-thiazole-diphenyl-tetrazolium (MTT) assay (Nacalai Tesque, Japan).
# [3] = test system: EGFP+Ba/F3 BCR-ABLWT cells; assay: Survival extension in a BCR-ABL leukemia mouse model; type: in vivo, nude mice; settings: 15 mM (249 mg/kg) FA-HP-β-CyD vs 150 mM (2086.5 mg/kg) HP-β-CyD, intraperitoneally twice a day for 20 days (FIG. 10)
# Description: The effect due to FA-HP-β-CyD on the extension of survival in a BCR-ABL leukemia mouse model was evaluated as follows.
# as §1
# EGFP+Ba/F3 BCR-ABLWT cells (1×10^6 cells) were transplanted into 6-week-old nude mice. Three days after transplantation, 200 μL vehicle (n=10), 150 mM (2086.5 mg/kg) HP-β-CyD (n=10), 15 mM (249 mg/kg) FA-HP-β-CyD (n=10), or […] (200 mg/kg) imatinib (n=10) was injected intraperitoneally twice a day for 20 days. The survival time was monitored daily. The survival data were analyzed using a log-rank nonparametric test and are reported as Kaplan-Meier survival curves.
# as §2
# [4] = test system: K562; assay: Induction of autophagosome formation (Cyto-ID Autophagy Detection Kit); type: cell-based; settings: K562, 1 mM or 5 mM, 2 hours (FIG. 7)
# Description: (§3) The induction of autophagosome formation by FA-HP-β-CyD was evaluated as follows.
# (§4) Leukemia cell lines (K562 and BV173) were used in this example. The FA-HP-β-CyD synthesized in Example 1 was used.
# (§5) The cells were cultured at a cell density of 4×10^5 cells/well on a 6-well plate and were treated for 2 hours with 1 mM or 5 mM HP-β-CyD or FA-HP-β-CyD, and the cells were incubated. This was followed by use of a Cyto-ID (registered trademark) Autophagy Detection Kit (Enzo Life Sciences, USA) and the use of an Axio Imager.M2 fluorescence microscope+an ApoTome.2 (Zeiss) for cell observation.
# [5] = test system: BV173; assay: as above; type: cell-based; settings: BV173, 1 mM or 5 mM, 2 hours (FIG. 7)
# Description: as §3, §4, §5
# [6] = test system: BV173; assay: Cellular uptake of TRITC-labelled CyD, confocal microscopy; type: cell-based; settings: confocal microscopy (FIG. 6)
# Description: The cellular uptake of FA-HP-β-CyD was evaluated as follows.
# A leukemia cell line (BV173) was used in this example. The FA-HP-β-CyD synthesized in Example 1 was used.
# 10 mg HP-β-CyD or FA-HP-β-CyD and 1 mg of TRITC were dissolved in 400 μL of dimethyl sulfoxide (DMSO) with stirring for 24 hours and the solution was then gradually poured into acetone. A precipitate was obtained and was washed with water. This was freeze-dried to prepare TRITC-HP-β-CyD and TRITC-FA-HP-β-CyD.
# The cells were then cultured at a cell density of 4×10e5 per well on a 6-well plate and were incubated with […], TRITC-HP-β-CyD, FA-HP-β-CyD, or HP-βCyD at different concentrations. A Zeiss LSM880 confocal microscope was used to observe the cells. Imaris (Zeiss) fluorescent image analysis software was used for analysis.
# The Control refers to incubation at the same time as the other exposure groups, but without exposure to an agent. Cell localization was stained by DAPI and the cell membrane was stained with PlasMen Bright Green, and the cellular uptake of TRITC-FA-HP-β-CyD was evaluated using confocal microscopy.
substance,measurement,setting,value
folic acid-appended hydroxypropyl-β-cyclodextrin [FA-HP-β-CyD],survival in two-time administration model compared with one-time administration model,"[1]; FIG. 14 compared with FIG. 13, HP-β-CyD 30 mg/kg, FA-HP-β-CyD 3 mg/kg",survival was extended by one day
same,survival in comparison to the vehicle group and HP-β-CyD group,"[1]; administered two times, first and second week after transplantation, FA-HP-β-CyD 3 mg/kg (FIG. 14)",extension of survival was confirmed
same,P versus the vehicle group (survival),"[1]; administered two times, first and second week, HP-β-CyD 30 mg/kg, FA-HP-β-CyD 3 mg/kg (FIG. 14)",0.0472
same,survival in comparison to the vehicle group and HP-β-CyD group,"[1]; single administration in the second week after ventricular transplantation, FA-HP-β-CyD 3 mg/kg (FIG. 13)",extension of survival was confirmed
same,P versus the vehicle group (survival),"[1]; single administration in the second week, HP-β-CyD 30 mg/kg, FA-HP-β-CyD 3 mg/kg (FIG. 13)",0.0111
same,cytotoxic / antitumor activity on A549 low folate receptor-expressing cells,[2],does not exhibit an antitumor activity
same,survival time extension,[3],same survival time extension at one-tenth the amount of HP-β-CyD; also recorded: significant extension of the survival time
same,autophagosome membrane protein LC3B,[4],increase in a concentration dependent manner
same,autophagosome membrane protein LC3B,[5],increase in a concentration dependent manner
same,cellular uptake,[6],incorporated in large amounts into the cell
